# From patent US20240425464A1, “Substituted Monohydrazides as Potent Antifungal Agents” (University of Kentucky Research Foundation, priority 2023, published 2024)
# Like-named read-outs stand apart in the source and are kept apart here.
# How the values were obtained:
# Assay in all cases: MIC determination by in vitro antifungal assay
# Type in all cases: cell-based
# [1] = test system: Candida parapsilosis ATCC 22019 (J)
# Procedure: (§1) 10 mg/mL stock solutions of compounds 1a-9j were prepared in dimethyl sulfoxide (DMSO) and were stored at −20° C. in the dark. The antifungal agent amphotericin B (AmB) was purchased from VWR (Radnor PA, USA). AmB was dissolved in DMSO at a final concentration of 5 mg/mL and was stored at −20° C., protected from light. Candida albicans American Type Culture Collection (ATCC) 10231 (strain A), C. albicans ATCC 64124 (B), and C. albicans ATCC MYA-2876 (C) were obtained from Utah State University. C. albicans ATCC 90819 (D), C. albicans ATCC MYA-2310 (E), C. albicans ATCC MYA-1237 (F), C. albicans ATCC MYA-1003 (G), Candida glabrata ATCC 2001 (H), Candida krusei ATCC 6258 (I), Candida parapsilosis ATCC 22019 (J), Cryptococcus neoformans ATCC MYA-895 (M), Aspergillus terreus ATCC MYA-3633 (N), and Aspergillus flavus ATCC MYA-3631 (0) were obtained from the American Type Culture Collection (ATCC; Manassas, VA, USA). Aspergillus nidulans ATCC 38163 (P) was obtained from University of Kentucky. Clinically derived Aspergillus fumigatus NRRL 163 (Q), A. fumigatus NRRL 5109 (R), and A. fumigatus NRRL 6113 (S) were obtained from Northern Regional Research Laboratory (NRRL). Candida auris 384 (K), C. auris 390 (L), and fungal strains 381-400 (including 10 C. auris (AR Bank #381-390), 3 Candida duobushaemulonii (AR Bank #391, AR Bank #392, and AR Bank #394), 2 Candida haemulonii (AR Bank #393 and AR Bank #395), 1 Kodameae ohmeri (AR Bank #396), 1 C. krusei (AR Bank #397), 1 Candida lusitaniae (AR Bank #398), and 2 Saccharomyces cerevisiae strains (AR Bank #399 and AR Bank #400)) were part of a larger fungal library from the AR Bank maintained by the Centers for Disease Control and Prevention (CDC; Atlanta, GA, USA). Filamentous fungi and yeasts were cultivated at 35° C. in RPMI 1640 medium (with L-glutamine, without sodium bicarbonate, Sigma-Aldrich, St. Louis, MO) buffered to a pH of 7.0 with 0.165 M morpholinepropanesulfonic acid (MOPS) buffer (Sigma-Aldrich). For cytotoxicity assays, HepG2 and the mouse macrophage cell line J774A.1 were obtained from University of Kentucky. The human embryonic kidney cell line, HEK-293, was bought from the ATCC. Mammalian cells were grown in Dulbecco's Modified Eagle's Medium (DMEM) (from VWR) with 10% fetal bovine serum (FBS) (from VWR) and 1% Pen/Strep (from ATCC). Cell lines were cultured at 37° C. with 5% CO2 and passaged by trypsinization with 0.05% trypsin: 0.53 mM EDTA (from Sigma-Aldrich).
# (§2) The MIC values of compounds 1a-9j against yeast cells (strains A-P and 381-400) were determined in 96-well plates as described in the CLSI documents M27-A3 and M38-A2 with minor modifications.^2 A single colony of freshly prepared yeast cells was used to inoculate 5 mL of yeast extract peptone dextrose (YPD) broth prior to incubation overnight with shaking at 200 rpm at 35° C. From the actively growing yeast culture, 100 µL were then transferred to 900 μL of RPMI 1640 medium and re-adjusted to achieve OD600 of 0.12 (˜1×10^6 CFU/mL). The cell suspension was further diluted to achieve 1:100 in RPMI 1640 medium. 100 μL of cells were added to the wells of a 96-well microtiter plates that contained 100 µL of the compound solution to obtain concentrations of 0.06-31.3 μg/mL of compounds 1a-9j or AmB prior to incubation for 48 h at 35° C. […]
# [2] = test system: Candida krusei ATCC 6258 (I)
# Procedure: as §1, §2
# [3] = test system: Candida glabrata ATCC 2001 (H); conditions: ATCC 2001 in text
# Procedure: as §1, §2
# [4] = Lodderomyces parapsilosis, ATCC22019, strain J = C. parapsilosis ATCC 22019, read-out: MIC
# [5] = Pichia kudriavzevii, ATCC6258, strain I = C. krusei ATCC 6258, read-out: MIC
# [6] = Nakaseomyces glabratus, ATCC 2001 / ATCC 2004, strain H = C. glabrata ATCC 2004 (footnote), read-out: MIC
# [7] = strain J = C. parapsilosis ATCC 22019
# [8] = strain H = C. glabrata ATCC 2004 (footnote)
Compound,"MIC [1, 4] [µg/mL]","MIC [2, 5] [µg/mL]","MIC [3, 6] [µg/mL]","MIC [1, 7] [μg/mL^−1]",MIC ([2]; strain I = C. krusei ATCC 6258) [μg/mL^−1],"MIC [3, 8] [μg/mL^−1]",MIC ([2]; against strain I) [j·tg mL^−1]
O=C(NNc1cc(Cl)cc(Cl)c1)c1cnccn1 [Compound 9j],3.9,0.98,15.6,,,,
O=C(NNc1ccc(F)cc1F)c1nc(F)ccc1F [Compound 8g],15.6,0.49,15.6,,,,
COc1ccc(NNC(=O)c2ccc(F)cn2)cc1 [Compound 3f],,,,3.9,0.24,1.95,
O=C(NNc1ccc(F)cc1F)c1ccc(F)cn1 [Compound 3g],31.3,0.98,31.3,,,,
O=C(NNc1ccc(F)cc1F)c1ccc(F)cc1F [Compound 1g],7.8,7.8,1.95,,,,
O=C(NNc1ccc(Cl)cc1)c1ccccn1 [Compound 2e],,,,3.9,1.95,1.95,
O=C(NNc1cc(F)cc(F)c1)c1cnccn1 [Compound 9i],3.9,0.49,7.8,,,,
O=C(NNc1ccc(F)cc1F)c1cccc(F)n1 [Compound 5g],31.3,0.98,31.3,,,,
O=C(NNc1cccc(Cl)c1)c1ccccn1 [Compound 2b],,,,1.95,0.49,1.95,
COc1cccc(NNC(=O)c2nc(F)ccc2F)c1 [Compound 8c],7.8,15.6,15.6,,,,
O=C(NNc1ccc(F)cc1)c1ccc(F)cn1 [Compound 3d],,,,3.9,0.49,15.6,
O=C(NNc1ccc(F)cc1F)c1ccccn1 [Compound 2g],1.95,0.49,0.98,,,,
COc1cccc(NNC(=O)c2ccc(F)cc2F)c1 [Compound 1c],7.8,0.98,31.3,,,,
O=C(NNc1ccc(F)cc1F)c1ccc(Br)cn1 [Compound 4g],3.9,0.49,7.8,,,,
O=C(NNc1cc(F)ccc1F)c1ccc(F)cc1F [Compound 1h],31.3,3.9,> 31.3,,,,
O=C(NNc1cccc(F)c1)c1cnccn1 [Compound 9a],,,,3.9,0.49,7.8,
COc1ccc(NNC(=O)c2ccc(Br)cn2)cc1 [Compound 4f],3.9,0.98,1.95,,,,
"C[C@@H]1[C@H](O)[C@@H](C)/C=C/C=C/C=C/C=C/C=C/C=C/C=C/[C@H](O[C@@H]2O[C@H](C)[C@@H](O)[C@H](N)[C@@H]2O)C[C@@H]2O[C@](O)(C[C@@H](O)C[C@@H](O)[C@H](O)CC[C@@H](O)C[C@@H](O)CC(=O)O[C@H]1C)C[C@H](O)[C@H]2C(=O)O [AmB, amphotericin B, reference compound]",,,,0.98,0.98,0.98,
O=C(NNc1ccc(F)cc1)c1ccc(F)cc1F [Compound 1d],15.6,1.95,7.8,,,,
O=C(NNc1ccc(F)cc1)c1cnccn1 [Compound 9d],3.9,0.49,3.9,,,,
COc1cccc(NNC(=O)c2ccc(F)cn2)c1 [Compound 3c],,,,3.9,0.24,,
COc1ccc(NNC(=O)c2nc(F)ccc2F)cc1 [Compound 8f],7.8,0.98,7.8,,,,
O=C(NNc1cccc(F)c1)c1ccccn1 [Compound 2a],,,,1.95,0.24,1.95,

Compound,"MIC [1, 4] [µg/mL]","MIC [2, 5] [µg/mL]","MIC [3, 6] [µg/mL]","MIC [1, 7] [μg/mL^−1]",MIC ([2]; strain I = C. krusei ATCC 6258) [μg/mL^−1],"MIC [3, 8] [μg/mL^−1]",MIC ([2]; against strain I) [j·tg mL^−1]
COc1cccc(NNC(=O)c2ccccn2)c1 [Compound 2c],,,,3.9,0.49,13.6,
O=C(NNc1ccc(F)cc1F)c1ncc(F)cc1F [Compound 7g],31.3,0.98,> 31.3,,,,
O=C(NNc1cc(Cl)cc(Cl)c1)c1ccc(F)cc1F [Compound 1j],> 31.3,1.95,> 31.3,,,,1.95
O=C(NNc1cc(F)cc(F)c1)c1ccccn1 [Compound 2i],1.95,0.24,7.8,,,,
O=C(NNc1cc(F)cc(F)c1)c1ccc(F)cc1F [Compound 1i],15.6,1.95,> 31.3,,,,1.95
O=C(NNc1cccc(F)c1)c1ccc(F)cc1F [Compound 1a],,,,3.9,1.95,7.8,
COc1cccc(NNC(=O)c2ncc(F)cc2F)c1 [Compound 7c],15.6,15.6,15.6,,,,
O=C(NNc1ccc(Cl)cc1)c1cnccn1 [Compound 9e],,,,7.8,3.9,1.95,
O=C(NNc1ccc(Cl)cc1)c1cccc(F)n1 [Compound 5e],,,,15.6,1.95,3.9,
O=C(NNc1ccc(F)cc1)c1ncc(F)cc1F [Compound 7d],3.9,0.49,15.6,,,,
O=C(NNc1cccc(F)c1)c1ccc(F)cn1 [Compound 3a],,,,1.95,0.24,31.3,
O=C(NNc1ccc(Cl)cc1)c1ncc(F)cc1F [Compound 7e],,,,15.6,1.95,3.9,
O=C(NNc1cccc(Cl)c1)c1cnccn1 [Compound 9b],1.95,0.24,3.9,,,,
O=C(NNc1ccc(F)cc1)c1cccc(Br)n1 [Compound 6d],7.8,0.49,> 31.3,,,,
COc1ccc(NNC(=O)c2ccc(F)cc2F)cc1 [Compound 1f],7.8,0.98,3.9,,,,
COc1cccc(NNC(=O)c2cnccn2)c1 [Compound 9c],1.95,0.49,7.8,,,,
O=C(NNc1cccc(F)c1)c1ccc(Br)cn1 [Compound 4a],,,,7.8,0.24,>31.3,
O=C(NNc1cc(F)ccc1F)c1cnccn1 [Compound 9h],7.8,0.49,15.6,,,,
COc1ccc(NNC(=O)c2ccccn2)cc1 [Compound 2f],3.9,0.49,0.98,,,,
O=C(NNc1ccc(Cl)cc1)c1nc(F)ccc1F [Compound 8e],,,,15.6,3.9,3.9,
O=C(NNc1ccc(F)cc1F)c1cnccn1 [Compound 9g],3.9,0.24,0.98,,,,
COc1ccc(NNC(=O)c2cnccn2)cc1 [Compound 9f],3.9,0.98,0.98,,,,
